In publication PMC5068747, “Using C. elegans Forward and Reverse Genetics to Identify New Compounds with Anthelmintic Activity” (PLoS Neglected Tropical Diseases, 2016):
Several values for one entry are separate records, joined by “and”; a condition that tells them apart may be missing. Equal values may be shown once.

Experiments:
[1] = tested on: S. cerevisiae yeast strain BY4743; assay: Yeast growth rate (OD600) dose titration; assay type: cell-based; details: Saccharomyces cerevisiae; BY4743, YPD, growth rate reduced by 50%
Protocol: The S. cerevisiae yeast strain BY4743 (MATa/α his3Δ1/his3Δ1 leu2Δ0/leu2Δ0 LYS2/lys2Δ0 met15Δ0/MET15 ura3Δ0/ura3Δ0) was used for all yeast experiments and was grown using yeast extract peptone dextrose (YPD) media at pH 7 [52]. BY4743 was grown overnight to initial log phase and was then grown with the compound identified in the C. elegans assay. The growth rate was quantified by continuously monitoring the optical density of the liquid yeast growth at OD600. The compound was screened in a dose-titration in YPD as described. The IC50 was the concentration required to reduce the growth rate or Average G value by 50% compared to a vehicle control (2% DMSO).

[2] = tested on: C. elegans RB2119 (acr-23(ok2804), monepantel-resistant); assay: IC50 on amino-acetonitrile resistant C. elegans strain; assay type: in vivo, Caenorhabditis elegans; details: Caenorhabditis elegans, 120 h; 5 days exposure, 2 L4 per well, three biological replicates; read-out: IC50, strain RB2119 (amino-acetonitriles)
[3] = tested on: C. elegans VC3631 (mev-1 gk3613, D19 resistant); assay: IC50 on CID 2747322 resistant C. elegans strain VC3631; assay type: in vivo, Caenorhabditis elegans; details: Caenorhabditis elegans, 120 h; 5 days exposure, 2 L4 per well, three biological replicates
Protocol: All compound libraries were stored in 96-well plates, with 80 drugs per plate (columns 1 and 12 left empty). A BioGrid BG600 pinning robot (Digilab / BioRobotics) was used for compound transfer. The robot uses a 96-pin tool (0.7 mm dia.) to transfer a nominal volume of 340 nL of compound. For retesting, compounds were hand pinned from the original library plates to assay plates using a single 0.7 mm dia. pin. The assay plates were 96-well clear flat-bottom microplates containing 2% χ1666 E.coli bacteria in 0.5X Liquid Nematode Growth Media (LNGM) plus cholesterol (Bacteria were mass-grown in rich media, and harvested by centrifugation to produce a thick paste of bacterial cells that was kept frozen at -20°C. Cells were resuspended at 2% W/V in 0.5X LNGM to produce liquid worm food). Using a COPAS Biosort (Union Biometrica), two L4 to young adult stage VC2010 worms were added to each well of the plate in a final volume of 45 μL. After five days of exposure to the compounds, the plates were scanned and the data analyzed. A five day time period was chosen to be able to observe effects over all stages of the life cycle and through at least one round of replication. The initial proof-of-principle primary screen was performed manually using a dissecting microscope. Phenotypes scored included decreased motility, reduced brood size, and/or death as described previously. For high throughput screening of the Chembridge and Maybridge compound libraries we used the program WormScan, which was adapted for screening 96-well flat-bottom LNGM plates. Using WormScan it was possible to screen four 96-well plates at a time. Plates were scanned twice, at a resolution of 1200 dots per inch, 16-bit grayscale, producing a jpeg image. The light intensity produced by the scanner was sufficient to cause negative phototaxis equivalent to a physical stimulus for mortality determination. The time required to scan four 96-well plates using an Epson Perfection V700 Photo Scanner was less than ten minutes. The time to screen a single plate was less than 1.2 minutes, with less than ten seconds between scans.
WormScan was used to screen for the same phenotypes as in the manual screen (reduced brood size, reduced behavior/motility response and increased mortality). Two sequential scans for each 96-well plate were aligned to a reference region of interest (ROI). Image analysis was based on a difference image score calculated for each ROI. The difference image score (WormScan score) was normalized using a “percent of control” method to derive a normalized WormScan score. […] Wild-type growth in 1% DMSO (Fig 1A) results in a normalized WormScan score of 100. Exposure to 50 nM ivermectin gives a score of 0 (Fig 1C), and complete absence of worms gives a score of 0 (Fig 1D). For the primary screen the WormScan score was calculated using custom macro scripts written for Fiji. For secondary screening and any subsequent studies the WormScan score was calculated using a standalone Java program (See supplemental). Probit regression of mortality was calculated using Mathematica 8.0.
A standard ethyl methanesulfonate (EMS) mutagenesis protocol was carried out using VC2010 in order to generate mutants resistant to CID 2747322 exposure. First larval stage (L1) F2 progeny of mutagenized P0s were exposed to CID 2747322 at 200 μM in liquid worm food in 24-well tissue culture plates for five days at room temperature, and two independently isolated resistant lines (VC3614 and VC3615) were identified. […]

[4] = tested on: Meloidogyne hapla J2; assay: Immobilization of infective second-stage juveniles (J2) of Meloidogyne hapla; assay type: in vivo
Protocol: A laboratory population of the plant-parasitic northern root-knot nematode, Meloidogyne hapla, was initiated by inoculating a tomato seedling growing in a 500 ml pot of 50:50 pasteurized sandy soil:peat with ~100 infective second-stage juveniles (J2) extracted from infested soil from a vineyard in the Okanagan Valley. The population was thereafter reared on tomato under greenhouse conditions. Prior to experimentation, galled roots were removed from heavily infested tomato plants, washed over a sieve with tap water, and then placed on Baermann funnels. J2 hatchings over the first three days were collected and suspended in tap water at a concentration of 100 J2/ml. Replicate 24-well cell culture plates were seeded with 0.2 ml of J2 suspension. Dilutions of CID 2747322 in distilled water were then added to the wells to result in four replicate wells of each of six concentrations in each plate. Concentrations tested spanned 0 to 320 μM and 0 to 160 μM in the two separate runs of the experiment. Nematodes were observed using an inverted microscope at 40X. On each observation date, a transect through each well was observed and J2 within the transect were scored as mobile or immobile. J2 that had taken on a straight posture were scored as immobile. Recently hatched J2 of M. hapla normally move continuously but slowly and always have a curved posture.
Supplementary file pntd.0005058.s005.pdf: S5 Fig Dosage curve for effects on Meloidogyne hapla of CID 2747322. The percentage of immobilization of infective juveniles of Meloidogyne hapla was measure after ten days of exposure to the compound. Data are from two separate trials testing 0–320 and 0–160 μM concentration ranges, respectively, with each point representing the mean of twelve test wells. (PDF) Click here for additional data file.

For `COc1ccc(OCCNC(=O)c2ccccc2C(F)(F)F)cc1` [CID 2747322, N-[2-(4-methoxyphenoxy)ethyl]-2-(trifluoromethyl)benzamide], which IC50 [1] is on record?
Its IC50 is over 1000 µM.

What about the IC50 [2] of the same compound?
The IC50 was 5 µM.

And the IC50 [3]?
The IC50 was over 500 µM.

What about the “immobilization of M. hapla J2” value ([4]; 160 and 320 μM, 24 hours after exposure initiation, increased through day 10) of the same compound?
Its value is “Immobilization was observed”.

And the IC50 ([4]; Meloidogyne hapla, 240 h, 10 day exposure)?
The IC50 was 129 µM and 44 µg/mL.

What about the “survival of M. hapla” value ([4]; extended exposure) of the same compound?
Its value is “die after extended exposure”.
